Data from patent publication US20240271138A1, “METHODS AND COMPOSITIONS FOR MODULATING STING SIGNALING AND INNATE IMMUNE RESPONSES” (The Broad Institute, Inc., priority 2021, published 2024).

Assays:
STING ubiquitination = assay: FLAG-ubiquitin immunoprecipitation of STING in 293T STING-HA / FLAG-ubiquitin cells; assay type: cell-based, human; details: 2′3′-cGAMP, 2 hours; 0.5 μM MLN7243; FIG. 12A
Experimental: 293T cells were transduced with pTRIP-hPGK-Blast-2A-STING-HA and pTRIP-hPGK-Hygro-2A-FLAG-Ubiquitin and selected with […] Blasticidin (Invivogen) and 320 μg/mL Hygromycin (Invivogen) for one week. 1 million cells/well were plated in a 6 well plate the day prior to the stimulation. Cells were then stimulated with 300 μL cGAMP permeabilization buffer containing 1 μg/mL cGAMP for 10 minutes, washed with 3 mL of warm medium, and the medium was replaced. 3 wells per condition were harvested 2 hours post stimulation, washed with PBS and lysed with 550 μL of RIPA buffer for 10 minutes on ice. Lysates were cleared at 16000 g for 10 minutes at 4° C. 10% of the lysate was saved as input. The remaining lysates were incubated with 150 μL Pierce Anti-[…] Magnetic beads (Thermo Fisher) O/N at 4° C. with constant rotation. Beads were washed 3 times with a buffer containing 10 mM Tris-HCl pH7.5 (Thermo Fisher), 2 mM EDTA (Thermo Fisher), 1% Nonidet-P40 Substitute (Roche) and 50 mM NaCl (Thermo Fisher), and 2 times with RIPA buffer. Proteins were eluted by adding 150 μL of non-reducing Laemmli (Boston bioproducts) containing 20 mM DTT (Thermo Fisher) and boiled for 20 minutes. Input was diluted with 2× sample buffer (Sigma).
MLN7243 was added again after medium replacement. Cells were stimulated for the indicated times.

[1] = test system: STING association with ESCRT (HGS, VPS37A) and TBK1; assay: STING-TurboID proximity biotin labeling and streptavidin pull-down in 293T; assay type: cell-based, human; details: 293T STING-TurboID; 3 hours; 0.5 μM MLN7243; FIG. 5C
Experimental: Generation of cells and stimulation. 293T cells were transduced with pTRIP-hPGK-Blast-2A-STING-TurboID and selected with 15 μg/mL Blasticidin (Invivogen) for one week. To test the construct via pull-down, 0.8 million cells were seeded in a 6 well plate. The following day, cells were permeabilized with 300 μl/well of cGAMP permeabilization buffer [50 mM HEPES (Corning), 100 mM KCl (Thermo Fisher), 3 mM MgCl2 (Thermo Fisher), 0.1 mM DTT (Thermo fisher), 85 mM Sucrose (Thermo Fisher), 0.5 mM ATP (Cayman chemicals), 0.1 mM GTP (Cayman Chemicals), 0.2% BSA (Seracare), 0.001% Digitonin (Promega)| containing 1 μg/mL 2′3′-cGAMP (Invivogen) or water for 10 minutes at 37° C., washed with 3 mL of warm medium and then medium was replaced. For mass-spec, 6 million cells were seeded in a 10 cm dish for each condition. Cells were stimulated with 2.8 mL of cGAMP permeabilization buffer containing 6 μg total of cGAMP per dish. Cells were left stimulating for the desired times and 500 μM biotin (Cayman chemicals) was added in each well 30 minutes prior to harvest. Cells were harvested by trypsinization, washed 3 times in cold PBS and pellets were frozen until processing. For experiments in 6 well plates, 3 wells per condition were harvested. For experiments in 10 cm dishes, one dish per condition was harvested.
Pull-down. […]

STING-mNeonGreen = assay: STING degradation in 293T STING-mNeonGreen reporter cell line by flow cytometry; details: 293T STING-mNG; 4 μg/mL 2′3′-cGAMP(pS)2; 0.5 μM MLN7243; FIGS. 5A-5B
Experimental: MLN7243 (Selleckchem) was used at 0.5 μM in all experiments. All cell lines were pre-treated for one hour before cGAMP stimulation. […] Cells were stimulated with 300 μL cGAMP permeabilization buffer containing 0.5 μg/mL 2′3′-cGAMP for 10 minutes, washed with 3 mL of medium, and medium was then replaced. MLN7243 was added again after medium replacement. Cells were stimulated for the indicated times.
Cells were then washed twice with Cytoperm and resuspended in FACS buffer for flow cytometry. Acquisition was performed on a Cytoflex S or Cytoflex LX (Beckman Coulter). Data was analyzed with FlowJo (BD).

NS(=O)(=O)OC[C@H]1C[C@@H](Nc2ccnc3cc(-c4cccc(SC(F)(F)F)c4)nn23)[C@H](O)[C@@H]1O [MLN7243]
STING ubiquitination (STING ubiquitination): blocked STING ubiquitination
biotin labeling of HGS and VPS37A by STING-TurboID [1]: reduced the biotin labeling of HGS and VPS37A
biotin labeling of TBK1 by STING-TurboID [1]: unaffected
degradation of STING (% STING-mNG positive cells) (STING-mNeonGreen): complete block of degradation of STING
